Experimental data reported in US10172796B2, “Use of umirolimus and its derivatives for treating cancer” (Manli International Ltd., priority 2012, dated 2019).
pIC50: −log10 of the molar value.

Tests used:
BxPC-3/pancreatic = test: CellTiter-Glo luminescent cell viability assay, BxPC-3; format: cell-based, human; conditions: 72 hours of in vitro culture
Method: (§1) Umirolimus was added to cultured cell lines derived from 9 types of human cancer. After 72 hours of in vitro culture, the 50% inhibitory concentration (IC50) of umirolimus on cell growth was measured using the CellTiter-Glo luminescent cell viability assay.

AZ-521/gastric = test: CellTiter-Glo luminescent cell viability assay, AZ-521; format: cell-based, human; conditions: 72 hours of in vitro culture
Method: as §1

[1] = See J. Med. Chem. 2000, 43:2922-2928; cited from earlier work
NCI-H460/lung = test: CellTiter-Glo luminescent cell viability assay, NCI-H460; format: cell-based, human; conditions: 72 hours of in vitro culture
Method: as §1

SNU-16/gastric = test: CellTiter-Glo luminescent cell viability assay, SNU-16; format: cell-based, human; conditions: 72 hours of in vitro culture
Method: as §1

SK-HEP-1/liver = test: CellTiter-Glo luminescent cell viability assay, SK-HEP-1; format: cell-based, human; conditions: 72 hours of in vitro culture
Method: as §1

[2] = tested on: K562/chronic myelogenous leukemia; test: CellTiter-Glo luminescent cell viability assay, K562; format: cell-based, human; conditions: 72 hours of in vitro culture
Method: as §1

MDA-MB-231/breast = test: CellTiter-Glo luminescent cell viability assay, MDA-MB-231; format: cell-based, human; conditions: 72 hours of in vitro culture
Method: as §1

[3] = tested on: 11 cell lines from 9 types of human cancers; test: CellTiter-Glo cell viability assay, summary over the cell line panel; format: cell-based; conditions: summary for all 11 cell lines of Table 1
Method: as §1

A2780/ovarian = test: CellTiter-Glo luminescent cell viability assay, A2780; format: cell-based, human; conditions: 72 hours of in vitro culture
Method: as §1

SW620/colorectal = test: CellTiter-Glo luminescent cell viability assay, SW620; format: cell-based, human; conditions: 72 hours of in vitro culture
Method: as §1

SK-MES-1/lung = test: CellTiter-Glo luminescent cell viability assay, SK-MES-1; format: cell-based, human; conditions: 72 hours of in vitro culture
Method: as §1

[4] = tested on: RPMI-8226/multiple myeloma; test: CellTiter-Glo luminescent cell viability assay, RPMI-8226; format: cell-based, human; conditions: 72 hours of in vitro culture
Method: as §1

[5] = tested on: 10 human cancer cell lines; test: Inhibition of cancer cell growth by umirolimus as compared to sirolimus and everolimus; format: cell-based; conditions: 8 out of the 10 cancer cell lines tested: A2780, SK-HEP-1, DLD-1, SNU-16, BxPC-3, 786-O, SK-MES-1, AZ-521; FIG. 1
Method: as §1
The IC50 for 3 “limus” drugs for inhibiting the growth of 10 human cancer cell is lines was measured using the CellTiter-Glo luminescent cell viability assay as described in Example 1. The ten exemplary human cancer cell lines tested were SK-MES-1 (lung cancer), BxPC-3 (pancreatic cancer), AZ-521 (gastric cancer), SNU-16 (gastric cancer), SK-HEP-1 (liver cancer), A2780 (ovarian cancer), MDA-MB-231 (breast cancer), DLD-1 (colorectal cancer), DU-145 (prostate cancer) and 786-O (kidney cancer).

**Q.** Which results are given for `CCOCCO[C@@H]1CC[C@@H](C[C@@H](C)[C@@H]2CC(=O)[C@H](C)/C=C(\C)[C@@H](O)[C@@H](OC)C(=O)[C@H](C)C[C@H](C)/C=C/C=C/C=C(\C)[C@@H](OC)C[C@@H]3CC[C@@H](C)[C@@](O)(O3)C(=O)C(=O)N3CCCC[C@H]3C(=O)O2)C[C@H]1OC` [umirolimus]?
**A.** pIC50 (BxPC-3/pancreatic): 5.51; Maximum inhibition (BxPC-3/pancreatic): 77.24%; pIC50 (AZ-521/gastric): 5.37; Maximum inhibition (AZ-521/gastric): 99.88%; lipophilicity as compared to sirolimus and everolimus [1]: 10 times; pIC50 (NCI-H460/lung): 5.15; Maximum inhibition (NCI-H460/lung): 88.99%; pIC50 (SNU-16/gastric): 5.94; Maximum inhibition (SNU-16/gastric): 99.75%; pIC50 (SK-HEP-1/liver): 5.11; Maximum inhibition (SK-HEP-1/liver): 99.97%; pIC50 [2]: 5.10; Maximum inhibition [2]: 98.49%; pIC50 (MDA-MB-231/breast): 5.02; Maximum inhibition (MDA-MB-231/breast): 99.23%; pIC50 [3]: > 5.00; pIC50 (A2780/ovarian): 5.14; Maximum inhibition (A2780/ovarian): 100.19%; pIC50 (SW620/colorectal): 5.08; Maximum inhibition (SW620/colorectal): 55.69%; pIC50 (SK-MES-1/lung): 5.08; Maximum inhibition (SK-MES-1/lung): 96.57%; pIC50 [4]: 5.17; Maximum inhibition [4]: 99.26%; IC50 compared to sirolimus and everolimus [5]: superior to that of sirolimus and everolimus
